Assays:
Test in all cases: biochemical
Parameters in all cases: Eurofins recombinant human kinase profiling, remaining kinase activity as % of control, 10 uM ATP
Settings in all cases: ATP 10 uM; read-out: %Ctrl@10 μM
ALK4(h) = target: T1, ALK4(h) (Homo sapiens, UniProt P36896)
T1 construct: gene ACVR1B
Method in brief: (§1)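 Recombinant human kinases, 401 in total, screened using an outsourced kinase profiling assay.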

CaMKIIβ(h) = target: T2, CaMKIIβ(h) (Homo sapiens, UniProt Q13554)
T2 construct: gene CAMK2B
Method in brief: as §1

EphA1(h) = EphA1(h) (Homo sapiens, UniProt P21709)
Method in brief: as §1

FAK(h) = target: T3, FAK(h) (Homo sapiens, UniProt Q05397)
T3 construct: gene PTK2
Method in brief: as §1

Fer(h) = Fer(h) (Homo sapiens, UniProt P16591)
Method in brief: as §1

JNK1α1(h) = target: T4, JNK1α1(h) (Homo sapiens, UniProt P45983)
T4 construct: gene MAPK8; isoform alpha1
Method in brief: as §1

LTK(h) = LTK(h) (Homo sapiens, UniProt P29376)
Method in brief: as §1

Lck(h) activated = Lck(h) activated (Homo sapiens, UniProt P06239)
Method in brief: as §1

MKK6(h) = target: T5, MKK6(h) (Homo sapiens, UniProt P52564)
T5 construct: gene MAP2K6
Method in brief: as §1

NEK1(h) = NEK1(h) (Homo sapiens, UniProt Q96PY6)
Method in brief: as §1

NEK2(h) = NEK2(h) (Homo sapiens, UniProt P51955)
Method in brief: as §1

NEK4(h) = NEK4(h) (Homo sapiens, UniProt P51957)
Method in brief: as §1

NEK9(h) = NEK9(h) (Homo sapiens, UniProt Q8TD19)
Method in brief: as §1

PDHK2(h) = target: T6, PDHK2(h) (Homo sapiens, UniProt Q15119)
T6 construct: gene PDK2
Method in brief: as §1

[1] = target: T7, PI3 Kinase (p110(H1047R)/p85)(h) (Homo sapiens, UniProt P42336, H1047R)
T7 construct: gene PIK3CA
Method in brief: as §1

PKG1α(h) = target: T8, PKG1α(h) (Homo sapiens, UniProt Q13976)
T8 construct: gene PRKG1; isoform 1alpha
Method in brief: as §1

RIPK1(h) = RIPK1(h) (Homo sapiens, UniProt Q13546)
Method in brief: as §1

Ret(h) = Ret(h) (Homo sapiens, UniProt P07949)
Method in brief: as §1

SBK1(h) = SBK1(h) (Homo sapiens, UniProt Q52WX2)
Method in brief: as §1

TAO3(h) = target: T9, TAO3(h) (Homo sapiens, UniProt Q9H2K8)
T9 construct: gene TAOK3
Method in brief: as §1

TSSK4(h) = TSSK4(h) (Homo sapiens, UniProt Q6SA08)
Method in brief: as §1

TTK(h) = TTK(h) (Homo sapiens, UniProt P33981)
Method in brief: as §1

mTOR/FKBP12(h) = mTOR/FKBP12(h) (Homo sapiens, UniProt P42345)
Method in brief: as §1

Sequence of Fer(h) (P16591 whole entry): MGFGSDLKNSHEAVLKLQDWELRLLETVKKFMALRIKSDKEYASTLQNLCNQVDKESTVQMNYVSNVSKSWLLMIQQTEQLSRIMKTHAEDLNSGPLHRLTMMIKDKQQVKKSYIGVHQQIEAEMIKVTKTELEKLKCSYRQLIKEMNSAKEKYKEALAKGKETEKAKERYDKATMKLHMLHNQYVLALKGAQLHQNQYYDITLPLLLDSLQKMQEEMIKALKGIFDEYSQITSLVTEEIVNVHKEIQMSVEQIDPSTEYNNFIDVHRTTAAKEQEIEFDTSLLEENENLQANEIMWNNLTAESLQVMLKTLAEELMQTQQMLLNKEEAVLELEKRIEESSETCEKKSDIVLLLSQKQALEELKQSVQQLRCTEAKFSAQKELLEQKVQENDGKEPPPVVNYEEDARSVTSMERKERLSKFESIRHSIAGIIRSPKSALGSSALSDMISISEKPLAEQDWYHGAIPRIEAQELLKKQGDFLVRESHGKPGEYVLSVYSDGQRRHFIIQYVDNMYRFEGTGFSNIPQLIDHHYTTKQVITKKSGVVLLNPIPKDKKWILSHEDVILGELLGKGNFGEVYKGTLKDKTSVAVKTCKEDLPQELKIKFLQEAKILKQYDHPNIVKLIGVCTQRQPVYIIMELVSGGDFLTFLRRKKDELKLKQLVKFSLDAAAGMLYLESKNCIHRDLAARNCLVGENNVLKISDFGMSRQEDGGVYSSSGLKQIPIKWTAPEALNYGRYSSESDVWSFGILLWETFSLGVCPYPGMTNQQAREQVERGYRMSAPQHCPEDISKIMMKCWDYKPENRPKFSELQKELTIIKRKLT
Sequence of SBK1(h) (Q52WX2 whole entry): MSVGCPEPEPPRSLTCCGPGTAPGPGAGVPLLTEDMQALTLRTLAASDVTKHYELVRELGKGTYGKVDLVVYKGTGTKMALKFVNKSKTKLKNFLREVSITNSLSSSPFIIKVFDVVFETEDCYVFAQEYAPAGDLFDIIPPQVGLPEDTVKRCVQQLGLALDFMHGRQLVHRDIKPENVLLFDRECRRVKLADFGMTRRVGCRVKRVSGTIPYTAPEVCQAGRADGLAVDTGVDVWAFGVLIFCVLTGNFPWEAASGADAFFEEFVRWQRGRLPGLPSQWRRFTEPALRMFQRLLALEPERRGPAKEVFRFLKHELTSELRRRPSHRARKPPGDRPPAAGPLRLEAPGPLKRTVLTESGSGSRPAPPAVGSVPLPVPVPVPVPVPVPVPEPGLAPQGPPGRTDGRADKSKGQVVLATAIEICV
Sequence of RIPK1(h) (Q13546 whole entry): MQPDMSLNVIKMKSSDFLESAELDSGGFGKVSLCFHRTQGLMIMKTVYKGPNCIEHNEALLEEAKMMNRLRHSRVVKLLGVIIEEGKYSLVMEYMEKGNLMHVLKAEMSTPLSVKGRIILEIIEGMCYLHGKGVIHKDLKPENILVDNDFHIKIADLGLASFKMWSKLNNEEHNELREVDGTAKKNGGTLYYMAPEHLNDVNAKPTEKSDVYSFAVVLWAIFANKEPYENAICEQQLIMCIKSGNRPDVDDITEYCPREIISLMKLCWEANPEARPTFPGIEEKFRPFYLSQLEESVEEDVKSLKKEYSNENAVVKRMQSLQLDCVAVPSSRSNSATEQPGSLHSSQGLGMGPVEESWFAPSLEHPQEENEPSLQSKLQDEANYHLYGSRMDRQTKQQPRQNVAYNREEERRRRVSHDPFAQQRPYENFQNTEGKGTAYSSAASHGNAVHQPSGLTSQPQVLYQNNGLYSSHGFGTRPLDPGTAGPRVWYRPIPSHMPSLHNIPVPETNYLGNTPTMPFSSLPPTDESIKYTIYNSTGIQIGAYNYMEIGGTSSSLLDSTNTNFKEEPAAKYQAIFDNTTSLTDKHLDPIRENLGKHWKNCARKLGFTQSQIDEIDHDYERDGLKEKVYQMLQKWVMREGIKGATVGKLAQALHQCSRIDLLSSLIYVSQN
Sequence of TTK(h) (P33981 whole entry): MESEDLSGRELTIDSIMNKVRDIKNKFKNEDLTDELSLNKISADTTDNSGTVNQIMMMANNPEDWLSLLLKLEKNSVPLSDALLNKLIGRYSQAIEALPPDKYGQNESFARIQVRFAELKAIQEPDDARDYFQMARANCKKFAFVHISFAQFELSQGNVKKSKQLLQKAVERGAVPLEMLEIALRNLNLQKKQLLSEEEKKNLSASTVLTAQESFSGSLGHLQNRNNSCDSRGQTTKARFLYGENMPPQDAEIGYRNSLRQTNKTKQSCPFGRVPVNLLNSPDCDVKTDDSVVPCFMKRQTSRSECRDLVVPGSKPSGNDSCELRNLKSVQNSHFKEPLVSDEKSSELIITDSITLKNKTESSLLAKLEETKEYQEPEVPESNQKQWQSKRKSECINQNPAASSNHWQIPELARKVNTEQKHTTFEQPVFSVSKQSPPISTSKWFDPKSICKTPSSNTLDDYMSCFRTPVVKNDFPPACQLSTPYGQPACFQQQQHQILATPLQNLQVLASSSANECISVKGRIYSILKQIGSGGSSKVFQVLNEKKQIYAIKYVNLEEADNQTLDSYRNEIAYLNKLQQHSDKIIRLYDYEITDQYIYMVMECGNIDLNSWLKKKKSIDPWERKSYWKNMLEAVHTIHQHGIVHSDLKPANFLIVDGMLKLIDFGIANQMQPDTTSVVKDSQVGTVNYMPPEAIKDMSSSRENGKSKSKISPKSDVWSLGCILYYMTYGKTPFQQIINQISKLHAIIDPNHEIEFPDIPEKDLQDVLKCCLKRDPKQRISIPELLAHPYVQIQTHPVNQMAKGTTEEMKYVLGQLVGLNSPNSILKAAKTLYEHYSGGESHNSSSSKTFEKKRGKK
Sequence of NEK1(h) (Q96PY6 whole entry): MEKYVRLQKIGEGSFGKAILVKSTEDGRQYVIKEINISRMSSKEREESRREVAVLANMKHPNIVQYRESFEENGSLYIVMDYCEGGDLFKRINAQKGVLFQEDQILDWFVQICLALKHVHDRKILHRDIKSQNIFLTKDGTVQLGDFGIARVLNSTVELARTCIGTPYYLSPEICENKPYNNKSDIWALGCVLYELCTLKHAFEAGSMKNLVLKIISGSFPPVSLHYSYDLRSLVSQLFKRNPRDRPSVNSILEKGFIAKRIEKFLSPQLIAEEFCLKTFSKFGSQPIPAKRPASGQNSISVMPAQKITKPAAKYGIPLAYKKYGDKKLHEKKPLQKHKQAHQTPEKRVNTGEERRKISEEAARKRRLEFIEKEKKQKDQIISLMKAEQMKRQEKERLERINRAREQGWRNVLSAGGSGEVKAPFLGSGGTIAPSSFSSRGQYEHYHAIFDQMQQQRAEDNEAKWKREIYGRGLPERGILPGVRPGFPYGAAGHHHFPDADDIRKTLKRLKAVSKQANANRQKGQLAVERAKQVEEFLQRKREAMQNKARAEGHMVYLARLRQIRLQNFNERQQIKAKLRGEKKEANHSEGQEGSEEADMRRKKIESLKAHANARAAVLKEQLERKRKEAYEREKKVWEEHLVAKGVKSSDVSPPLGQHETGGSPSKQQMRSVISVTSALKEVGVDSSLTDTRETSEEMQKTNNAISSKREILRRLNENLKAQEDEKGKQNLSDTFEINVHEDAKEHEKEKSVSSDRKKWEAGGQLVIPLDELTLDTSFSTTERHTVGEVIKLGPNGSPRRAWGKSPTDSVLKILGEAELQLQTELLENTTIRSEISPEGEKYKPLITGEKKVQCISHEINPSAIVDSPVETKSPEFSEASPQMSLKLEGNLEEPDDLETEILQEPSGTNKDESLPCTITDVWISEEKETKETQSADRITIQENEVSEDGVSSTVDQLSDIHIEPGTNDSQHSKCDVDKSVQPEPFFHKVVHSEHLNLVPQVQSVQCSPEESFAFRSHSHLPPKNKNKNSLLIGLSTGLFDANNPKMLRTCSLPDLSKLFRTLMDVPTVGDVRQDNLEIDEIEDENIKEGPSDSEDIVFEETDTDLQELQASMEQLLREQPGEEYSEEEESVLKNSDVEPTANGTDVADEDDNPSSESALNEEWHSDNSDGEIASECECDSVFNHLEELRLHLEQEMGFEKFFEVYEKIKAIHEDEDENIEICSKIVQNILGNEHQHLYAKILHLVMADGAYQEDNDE
T1 sequence (P36896 whole entry): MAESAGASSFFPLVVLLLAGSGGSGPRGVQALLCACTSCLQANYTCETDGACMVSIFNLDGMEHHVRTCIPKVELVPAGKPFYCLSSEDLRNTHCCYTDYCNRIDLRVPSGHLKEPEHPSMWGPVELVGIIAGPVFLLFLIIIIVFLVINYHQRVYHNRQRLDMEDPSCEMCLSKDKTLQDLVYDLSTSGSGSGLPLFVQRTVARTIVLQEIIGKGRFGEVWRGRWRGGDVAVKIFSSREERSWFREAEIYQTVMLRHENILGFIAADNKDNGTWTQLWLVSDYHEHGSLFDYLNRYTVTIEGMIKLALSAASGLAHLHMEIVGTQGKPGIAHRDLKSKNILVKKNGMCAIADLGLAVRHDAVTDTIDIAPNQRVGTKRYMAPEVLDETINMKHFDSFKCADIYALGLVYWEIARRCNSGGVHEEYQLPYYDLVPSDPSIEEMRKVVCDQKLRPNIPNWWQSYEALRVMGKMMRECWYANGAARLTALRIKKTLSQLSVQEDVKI
T5 sequence (P52564 whole entry): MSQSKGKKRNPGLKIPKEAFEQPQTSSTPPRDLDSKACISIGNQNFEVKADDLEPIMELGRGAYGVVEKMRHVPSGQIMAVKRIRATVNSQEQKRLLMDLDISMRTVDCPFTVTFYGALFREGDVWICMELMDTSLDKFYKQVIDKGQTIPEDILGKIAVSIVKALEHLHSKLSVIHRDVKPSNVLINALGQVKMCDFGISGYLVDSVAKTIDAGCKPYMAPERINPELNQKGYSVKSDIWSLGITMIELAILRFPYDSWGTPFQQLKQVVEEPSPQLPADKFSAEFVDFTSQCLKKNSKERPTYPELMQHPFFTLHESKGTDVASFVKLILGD

Structure (SMILES): C1=C(c2nc(-c3cnn(C4CCNCC4)c3)cn3cc(-c4ccccc4)nc23)CCOC1 [YL-939]
- remaining activity at 10 µM (ALK4(h)): 117%
- remaining activity at 10 µM (CaMKIIβ(h)): 70%
- remaining activity at 10 µM (EphA1(h)): 109%
- remaining activity at 10 µM (FAK(h)): 112%
- remaining activity at 10 µM (Fer(h)): 86%
- remaining activity at 10 µM (JNK1α1(h)): 109%
- remaining activity at 10 µM (LTK(h)): 108%
- remaining activity at 10 µM (Lck(h) activated): 77%
- remaining activity at 10 µM (MKK6(h)): 106%
- remaining activity at 10 µM (NEK1(h)): 105%
- remaining activity at 10 µM (NEK2(h)): 99%
- remaining activity at 10 µM (NEK4(h)): 118%
- remaining activity at 10 µM (NEK9(h)): 99%
- remaining activity at 10 µM (PDHK2(h)): 87%
- remaining activity at 10 µM [1]: 99%
- remaining activity at 10 µM (PKG1α(h)): 90%
- remaining activity at 10 µM (RIPK1(h)): 106%
- remaining activity at 10 µM (Ret(h)): 123%
- remaining activity at 10 µM (SBK1(h)): 106%
- remaining activity at 10 µM (TAO3(h)): 102%
- remaining activity at 10 µM (TSSK4(h)): 97%
- remaining activity at 10 µM (TTK(h)): 102%
- remaining activity at 10 µM (mTOR/FKBP12(h)): 88%

Reference: publication PMC9719519, “Non-classical ferroptosis inhibition by a small molecule targeting PHB2” (Nature Communications, 2022)
